Results taken from patent publication US9167818B2, “Active compounds combinations comprising prothioconazole and fluxapyroxad” (BAYER CROPSCIENCE AG, priority 2010, dated 2015).

Tested on: Alternaria solani
Test: Alternaria test (tomatoes) / preventive
Format: in vivo, Alternaria solani on tomatoes
Details: single active, preventive spray, evaluated 3 days after inoculation
Text: The expected activity for a given combination of two active compounds can be calculated as follows (cf. Colby, S. R., “Calculating Synergistic and Antagonistic Responses of Herbicide Combinations”, Weeds 1967, 15, 20-22): If • X is the efficacy when active compound A is applied at an application rate of m ppm (or g/ha), • Y is the efficacy when active compound B is applied at an application rate of n ppm (or g/ha), • E is the efficacy when the active compounds A and B are applied at application rates of m and n ppm (or g/ha), respectively, and then
The degree of efficacy, expressed in % is denoted. 0% means an efficacy which corresponds to that of the control while an efficacy of 100% means that no disease is observed.
If the actual fungicidal activity exceeds the calculated value, then the activity of the combination is superadditive, i.e. a synergistic effect exists. In this case, the efficacy which was actually observed must be greater than the value for the expected efficacy (E) calculated from the abovementioned formula.
To produce a suitable preparation of active compound, 1 part by weight of active compound is mixed with the stated amounts of solvent and emulsifier, and the concentrate is diluted with water to the desired concentration. To test for preventive activity, young plants are sprayed with the preparation of active compound at the stated rate of application. After the spray coating has dried on, the plants are inoculated with an aqueous spore suspension of Alternaria solani. The plants are then placed in an incubation cabinet at approximately 20° C. and a relative atmospheric humidity of 100%. The test is evaluated 3 days after the inoculation. 0% means an efficacy which corresponds to that of the untreated control while an efficacy of 100% means that no disease is observed.

| SMILES | Efficacy in % found (application rate 0.5 ppm a.i.) [%] | Efficacy in % found (application rate 1 ppm a.i.) [%] | Efficacy in % found (application rate 2 ppm a.i.) [%] | Efficacy in % found (application rate 0.25 ppm a.i.) [%] |
| --- | --- | --- | --- | --- |
| Fc1ccc([C@]2(Cn3cncn3)O[C@H]2c2ccccc2Cl)cc1 (racemic) [Epoxiconazole, epoxiconazole] | 41 | 53 | 59 | – |
| OC(Cc1ccccc1Cl)(Cn1[nH]cnc1=S)C1(Cl)CC1 (stereo not drawn) [(A) Prothioconazole, 2-[2-(1-chlorocyclopropyl)-3-(2-chlorophenyl)-2-hydroxypropyl]-1,2-dihydro-3H-1,2,4-triazole-3-thione] | 0 | 18 | 41 | – |
| Cn1cc(C(=O)Nc2ccccc2-c2cc(F)c(F)c(F)c2)c(C(F)F)n1 [(B) Fluxapyroxad, 3-(difluoromethyl)-1-methyl-N-(3′,4′,5′-trifluorobiphenyl-2-yl)pyrazole-4-carboxamide] | 65 | 87 | – | 62 |
